Test results reported in ChEMBL document CHEMBL1201862, “PubChem BioAssay data set” (2004).
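Method: 48-hour compound exposure of cells in 96-well plates, five concentrations, linear interpolation of endpoints. GI50 marks 50% less growth.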 Activity calls are given as the source filed them. No stated cut-off is given here; in the data, active = GI50 up to about 1.1 µM and inactive = higher.

How the values were obtained:
Assay in all cases: NCI-60 cell line screen, 48 h
[1] = tested on: 786-0
[2] = tested on: OVCAR-3
[3] = tested on: CCRF-CEM
[4] = tested on: HCC 2998
[5] = tested on: Hs-578T
[6] = tested on: ACHN
[7] = tested on: SK-MEL-2
[8] = tested on: SF-539
[9] = tested on: A549
[10] = tested on: U-251
[11] = tested on: MDA-N
[12] = tested on: K562
[13] = tested on: TK-10
[14] = tested on: NCI-H460
[15] = tested on: MDA-MB-435
[16] = tested on: NCI/ADR-RES
[17] = tested on: UO-31
[18] = tested on: LOX IMVI
[19] = tested on: T47D

Compound | GI50 [1] | GI50 [2] | GI50 [3] | GI50 [4] | GI50 [5] | GI50 [6] | GI50 [7] | GI50 [8] | GI50 [9] | GI50 [10] | GI50 [11] | GI50 [12] | GI50 [13] | GI50 [14] | GI50 [15] | GI50 [16] | GI50 [17] | GI50 [18] | GI50 [19]
C=C1C[C@]23CC[C@@H]4C(CO)(CO)CC(=O)C[C@]4(C)[C@@H]2C(O)C[C@H]1C3 (stereo not given in full) | > 100 µM (inactive) | > 100 µM (inactive) | > 100 µM (inactive) | > 100 µM (inactive) | > 100 µM (inactive) | > 100 µM (inactive) | > 100 µM (inactive) | > 100 µM (inactive) | > 100 µM (inactive) | > 100 µM (inactive) | > 100 µM (inactive) | > 100 µM (inactive) | > 100 µM (inactive) | > 100 µM (inactive) | > 100 µM (inactive) | > 100 µM (inactive) | > 100 µM (inactive) | > 100 µM (inactive) | 
CC1(C)C2CCC1(C)C(NC(=O)COCCOCC(N)=O)C2 (stereo not given) | > 100 µM (inactive) | > 100 µM (inactive) | > 100 µM (inactive) | 45 µM (inactive) | > 100 µM (inactive) | > 100 µM (inactive) |  | > 100 µM (inactive) | > 100 µM (inactive) | > 100 µM (inactive) | > 100 µM (inactive) | 32.1 µM (inactive) | > 100 µM (inactive) | > 100 µM (inactive) | > 100 µM (inactive) |  | > 100 µM (inactive) |  | > 100 µM (inactive)
O=C(O)/C(Cc1c[nH]nn1)=N\O | > 100 µM (inactive) | > 100 µM (inactive) | > 100 µM (inactive) |  | > 100 µM (inactive) | > 100 µM (inactive) | > 100 µM (inactive) | > 100 µM (inactive) | > 100 µM (inactive) | > 100 µM (inactive) | > 100 µM (inactive) | > 100 µM (inactive) | > 100 µM (inactive) | > 100 µM (inactive) | > 100 µM (inactive) | > 100 µM (inactive) | > 100 µM (inactive) | > 100 µM (inactive) | > 100 µM (inactive)
OCC1OC(c2n[nH]c3c(O)ncnc23)C(O)C1O (stereo not given) | 9.4 µM (inactive) | 9.18 µM (inactive) | 7.38 µM (inactive) | 18.7 µM (inactive) | 33.8 µM (inactive) | 4.01 µM (inactive) |  | 26 µM (inactive) |  | 47.9 µM (inactive) | 31.7 µM (inactive) | 7.48 µM (inactive) |  | 10.6 µM (inactive) | 34.4 µM (inactive) | 4.22 µM (inactive) | 8.79 µM (inactive) | 3.92 µM (inactive) | 4.72 µM (inactive)
COc1ccc2cc(C(=O)CCC(=O)O)ccc2c1 | 22.4 µM (inactive) | > 100 µM (inactive) | > 100 µM (inactive) |  | > 100 µM (inactive) | > 100 µM (inactive) | > 100 µM (inactive) | > 100 µM (inactive) | > 100 µM (inactive) | > 100 µM (inactive) | > 100 µM (inactive) | > 100 µM (inactive) | > 100 µM (inactive) | > 100 µM (inactive) | > 100 µM (inactive) | > 100 µM (inactive) | > 100 µM (inactive) | > 100 µM (inactive) | > 100 µM (inactive)
O=C(c1cccs1)N1CCCN(C(=O)c2cccs2)C1=S | > 100 µM (inactive) | > 100 µM (inactive) | > 100 µM (inactive) |  | > 100 µM (inactive) | > 100 µM (inactive) | 84.7 µM (inactive) | > 100 µM (inactive) |  | > 100 µM (inactive) |  | > 100 µM (inactive) | > 100 µM (inactive) |  | > 100 µM (inactive) | > 100 µM (inactive) | > 100 µM (inactive) | > 100 µM (inactive) | > 100 µM (inactive)
CCC1c2[nH]c3ccccc3c2C[C@H]2C(=O)NC(COC(C)(C)C)C(=O)N12 (stereo not given in full) | 61.2 µM (inactive) | 32 µM (inactive) |  |  | 25.8 µM (inactive) | 42 µM (inactive) | 32.8 µM (inactive) |  | 39.3 µM (inactive) | 40.7 µM (inactive) |  | 39.4 µM (inactive) | 27.1 µM (inactive) | 31.2 µM (inactive) | 37.7 µM (inactive) | 40.7 µM (inactive) | 38.2 µM (inactive) | 37.3 µM (inactive) | 44.9 µM (inactive)
CN(C)c1ccc(/C=N/c2ccc(-c3nc4ccccc4o3)cc2)cc1 | 50.6 µM (inactive) | 20.3 µM (inactive) |  | 14.7 µM (inactive) | > 100 µM (inactive) | 54.3 µM (inactive) | 30.6 µM (inactive) | 40.8 µM (inactive) | 46.9 µM (inactive) | 31.7 µM (inactive) |  | 36.7 µM (inactive) | 36.5 µM (inactive) | 28.8 µM (inactive) | 30.1 µM (inactive) | 33.5 µM (inactive) | 48.8 µM (inactive) | 35.2 µM (inactive) | 19.4 µM (inactive)
CNc1nc(OC)c2c(n1)n(C)c[n+]2C [HETEROMINE B] | > 100 µM (inactive) | 62.7 µM (inactive) | > 100 µM (inactive) |  | 31.6 µM (inactive) | > 100 µM (inactive) | 53.3 µM (inactive) | > 100 µM (inactive) | 73.8 µM (inactive) | 45.7 µM (inactive) | > 100 µM (inactive) | > 100 µM (inactive) | > 100 µM (inactive) | > 100 µM (inactive) | > 100 µM (inactive) | > 100 µM (inactive) | > 100 µM (inactive) | > 100 µM (inactive) | > 100 µM (inactive)
CC(=O)OC1CCC2(C)C(=CCC3C2CCC2(C)C3CC3OC4(CCC(C)CN4)C(C)C32)C1 (stereo not given) | 74.3 µM (inactive) | > 100 µM (inactive) | > 100 µM (inactive) |  | > 100 µM (inactive) | > 100 µM (inactive) | > 100 µM (inactive) | > 100 µM (inactive) | > 100 µM (inactive) | > 100 µM (inactive) | > 100 µM (inactive) | > 100 µM (inactive) | > 100 µM (inactive) | > 100 µM (inactive) | > 100 µM (inactive) | > 100 µM (inactive) | > 100 µM (inactive) | > 100 µM (inactive) | > 100 µM (inactive)
Cc1ccc(S(=O)(=O)NC(=O)NC2=NC(C)(C)N(c3ccc(Cl)c(Cl)c3)C(N)=N2)cc1 | 8.3 µM (inactive) | > 100 µM (inactive) | 4.74 µM (inactive) | 15.9 µM (inactive) | 47.8 µM (inactive) | 11.1 µM (inactive) | > 100 µM (inactive) | 29.2 µM (inactive) | 2.92 µM (inactive) | 5.68 µM (inactive) | 5.04 µM (inactive) | 1.94 µM (inactive) | 84.7 µM (inactive) | 36 µM (inactive) |  | > 100 µM (inactive) | > 100 µM (inactive) |  | 10.4 µM (inactive)
Cc1ccc(S(=O)(=O)NC(=O)NCC(N)=O)cc1 | > 100 µM (inactive) |  | > 100 µM (inactive) |  | > 100 µM (inactive) | > 100 µM (inactive) | > 100 µM (inactive) | > 100 µM (inactive) | > 100 µM (inactive) | > 100 µM (inactive) | > 100 µM (inactive) | > 100 µM (inactive) | > 100 µM (inactive) | > 100 µM (inactive) |  | > 100 µM (inactive) | > 100 µM (inactive) | > 100 µM (inactive) | > 100 µM (inactive)
CC(/C=C/C(O)=C1/C(=O)CNC1=O)=C\[C@@H](C)[C@H]1O[C@@]2(C)O[C@H](C(=O)[C@@H]3O[C@@]32C)[C@@H]1C | 16.7 µM (inactive) | 18.9 µM (inactive) | 7.24 µM (inactive) |  | 24.9 µM (inactive) | 19.6 µM (inactive) | 22.7 µM (inactive) | 18.7 µM (inactive) |  | 19.5 µM (inactive) | 35.8 µM (inactive) | 19.8 µM (inactive) | 19.2 µM (inactive) |  | 28.2 µM (inactive) | 26.6 µM (inactive) | 13.8 µM (inactive) | 14.5 µM (inactive) | 15.1 µM (inactive)
Cc1c(CCCl)c(N=[N+]=[N-])n2c(nc3ccccc32)c1C#N | 0.601 µM (active) | 1.39 µM (inactive) | 0.236 µM (active) |  | 0.986 µM (active) | 1.22 µM (inactive) | 1.48 µM (inactive) | 1.82 µM (inactive) | 2.12 µM (inactive) | 2.17 µM (inactive) | 1.56 µM (inactive) | 0.29 µM (active) | 1.52 µM (inactive) | 1.39 µM (inactive) | 1.43 µM (inactive) | 1.69 µM (inactive) | 1.65 µM (inactive) | 0.902 µM (active) | 0.839 µM (active)
CC(C)(C)c1cc(C2COC(=O)COCCOCC(=O)OCCOCCO2)cc(C(C)(C)C)c1O (stereo not given) | 10 µM (inactive) | > 100 µM (inactive) | > 100 µM (inactive) | 23 µM (inactive) | 27.7 µM (inactive) | 20.7 µM (inactive) | > 100 µM (inactive) | > 82.8 µM (inactive) | > 100 µM (inactive) | 36.7 µM (inactive) |  | > 100 µM (inactive) | 16.5 µM (inactive) | 49.4 µM (inactive) | 37.3 µM (inactive) | > 100 µM (inactive) | 15.6 µM (inactive) | 18.7 µM (inactive) | 29.2 µM (inactive)
O=C1CN(c2cccc(C(F)(F)F)c2)C(=O)CN1CCN1CC(=O)N(c2cccc(C(F)(F)F)c2)CC1=O | > 100 µM (inactive) |  | > 100 µM (inactive) | > 100 µM (inactive) | > 100 µM (inactive) | > 100 µM (inactive) |  | > 100 µM (inactive) | > 100 µM (inactive) | > 100 µM (inactive) | > 100 µM (inactive) | > 100 µM (inactive) | > 100 µM (inactive) | > 100 µM (inactive) | > 100 µM (inactive) | > 100 µM (inactive) | > 100 µM (inactive) |  | > 100 µM (inactive)
